# Measured values published in US9994515B2, “Aryl naphthyl methanone oxime(s) and process for preparation thereof” (Council of Scientific & Industrial Research, priority 2013, dated 2018).
# Columns and labels:
# Format in all cases: cell-based
# HCT116 = test: Sulphorhodamine B assay in HCT116 colon cancer cells; conditions: Homo sapiens, HCT-116; SRB assay
# SW620 = test: Sulphorhodamine B assay in SW620 colon cancer cells; conditions: Homo sapiens, SW-620; SRB assay
# [1] = system: CD133+ DLD1 colon cancer cells; test: CD133+ colon cancer stem cell population by flow cytometry; conditions: 20 uM, 24 h, vehicle 15.30%
# Method: FIG. 9. Centans reduces CD133+ colon cancer stem cells with a higher efficacy than salinomycin. DLD1 colon cancer cells were treated with indicated compounds for 24h following which the CD133+ population was assessed by flow cytometry using CD133 antibody or relevant isotype control antibody (BD biosciences) in a Becton Dickinson FACS Calibur. Numbers in the dot plot represent % CD133+ cells.
# DLD1 = test: Sulphorhodamine B assay in DLD1 colon cancer cells; conditions: Homo sapiens, DLD-1; SRB assay
# Colo205 = test: Sulphorhodamine B assay in Colo205 colon cancer cells; conditions: Homo sapiens, COLO 205; SRB assay
IC50 (HCT116) [µM],IC50 (SW620) [µM],IC50 (DLD1) [µM],IC50 (Colo205) [µM],SMILES,CD133+ population after treatment (minus isotype control) [1]
> 50,> 50,16.4,38.1,"O=c1[nH]cc(F)c(=O)[nH]1 [Compound 5-FU, 5-fluoro uracil, reference compound]",no effect
–,–,–,–,CC[C@@H](C(=O)[C@@H](C)[C@@H](O)[C@H](C)[C@@H]1O[C@@H]([C@@H](CC)C(=O)O)CC[C@@H]1C)[C@H]1O[C@]2(C=C[C@@H](O)[C@]3(CC[C@@](C)([C@H]4CC[C@](O)(CC)[C@H](C)O4)O3)O2)[C@H](C)C[C@@H]1C [salinomycin],5.42%
